Measured values taken from US10039713B1, “Drug-loaded ganglioside micelle and the preparation method and use thereof” (Chongqing University, priority 2017, dated 2018).

System: blood brain barrier
Experiment: Evaluation on intracranial blood brain barrier penetrating effect of a GM1 micelle (animal living body fluorescence imaging)
Format: in vivo
Conditions: healthy mice, intravenous injection of tails, FIG. 2
Method: According to the preparation method of DOX-GM1 in the example 1, a fluorescent dye DiR-GM1 mixed micelle was prepared according to the same method. DiR-GM1 micelle and free-DiR were intravenous injected of tails of the healthy mice. The distribution and strength of the DiR fluorescence in tissues are observed and recorded by the animal living body imagery at different time points.

In the case of `CCCCCCCCCCCCCCCCCCN1/C(=C/C=C/C=C/C=C/C2=[N+](CCCCCCCCCCCCCCCCCC)c3ccccc3C2(C)C)C(C)(C)c2ccccc21.[I-]` [DiR solution], the “entry into the brain / blood-brain barrier penetration” value is reported as “cannot enter the brain” and the “fluorescence distribution (DiR) in tissues” value (in-vivo imaging at different time points) is reported as “concentrated in the liver”.
